Experimental data published in publication PMC2893400 (Biomedical chromatography : BMC, 2010).

Columns and labels:
[1] = Stability of stock solutions in methanol at 4°C; assay type: physicochemical; conditions: stock solution in methanol stored at 4°C, up to 7 days
[2] = Stability post extraction, reconstituted in methanol at room temperature; assay type: physicochemical; conditions: kept at room temperature

## CC(C)C[C@H]1C(=O)N2CCC[C@H]2[C@]2(O)O[C@](NC(=O)[C@@H]3C=C4c5cccc6[nH]c(Br)c(c56)C[C@H]4N(C)C3)(C(C)C)C(=O)N12 [BCT, bromocriptine]
[1]
  Degradation of stock solution: began to degrade significantly after 3 days

## O=C(CCCN1CCCN(c2ccc(Cl)cc2)CC1)c1ccc(F)cc1 [DAL, 4-[4-(4-Chlorophenyl)-1,4-diazepan-1-yl]-1-(4-fluorophenyl) butan-1-one]
[1]
  Degradation of stock solution: no degradation after 7 days
[2]
  Degradation reconstituted in methanol after recovery: no degradation

## O=C(CCCN1CC=C(n2c(=O)[nH]c3ccccc32)CC1)c1ccc(F)cc1 [DRO, droperidol]
[1]
  Degradation of stock solution: no degradation after 7 days
[2]
  Degradation reconstituted in methanol after recovery: no degradation
